According to PubChem BioAssay AID212 (DTP/NCI, 2004):
Several values for one entry are separate records, joined by “and”; a condition that tells them apart may be missing. Identical values can stand only once. Results filed as inconclusive are left out.

System: BDF1 mice, colon carcinoma 38 sc, T/C %
Assay: NCI In Vivo Anticancer Drug Screen. Data for tumor model Colon Carcinoma 38 (subcutaneous) in B6D2F1 (BDF1) mice
Conditions: endpoint: median tumor weight (est.), higher = larger tumour
Summary of the method: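 Transplantable tumor in mice; compound-treated vs vehicle-dosed controls. Measured survival or tumor size; value = T ÷ C.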

[1] = dose: 12.5 mg/kg/injection, schedule: Q07DX002 (ip), vehicle: saline
[2] = dose: 25.0 mg/kg/injection, schedule: Q07DX002 (ip), vehicle: saline
[3] = dose: 50.0 mg/kg/injection, schedule: Q07DX002 (ip), vehicle: saline
[4] = dose: 100.0 mg/kg/injection, schedule: Q07DX002 (ip), vehicle: saline
[5] = dose: 50.0 mg/kg/injection, schedule: Q07DX002 (ip), vehicle: saline with Tween-80
[6] = dose: 100.0 mg/kg/injection, schedule: Q07DX002 (ip), vehicle: saline with Tween-80
[7] = dose: 200.0 mg/kg/injection, schedule: Q07DX002 (ip), vehicle: saline with Tween-80
[8] = dose: 400.0 mg/kg/injection, schedule: Q07DX002 (ip), vehicle: saline with Tween-80
[9] = dose: 200.0 mg/kg/injection, schedule: Q07DX002 (ip), vehicle: saline
[10] = dose: 6.25 mg/kg/injection, schedule: Q07DX002 (ip), vehicle: saline with Tween-80
[11] = dose: 12.5 mg/kg/injection, schedule: Q07DX002 (ip), vehicle: saline with Tween-80

SMILES: C[C@]12CC[C@H]3[C@@H](CCC4=C[C@@H](OC5OCC(OC6OC(CO)C(O)C(O)C6O)C(O)C5O)CC[C@@]43C=O)[C@@]1(O)CCC2C1=CC(=O)OC1 (stereo not given in full)
- T/C (dose: 0.31 mg/kg/injection, schedule: Q07DX003 (ip), vehicle: Klucel (hydroxypropylcellulose) (HPC)): 106 % of control
- T/C (dose: 1.25 mg/kg/injection, schedule: Q07DX003 (ip), vehicle: Klucel (hydroxypropylcellulose) (HPC)): 53 % of control
- T/C (dose: 2.5 mg/kg/injection, schedule: Q07DX003 (ip), vehicle: Klucel (hydroxypropylcellulose) (HPC)): 102 % of control
- T/C (dose: 5.0 mg/kg/injection, schedule: Q07DX003 (ip), vehicle: Klucel (hydroxypropylcellulose) (HPC)): 105 % of control
- T/C (dose: 10.0 mg/kg/injection, schedule: Q07DX003 (ip), vehicle: Klucel (hydroxypropylcellulose) (HPC)): 95 % of control

SMILES: CCN=C=NCCCN(C)C
- T/C [1]: 118 % of control
- T/C [2]: 103 % of control
- T/C [3]: 120 % of control
- T/C [4]: 100 % of control

SMILES: CCOc1cc2c(cc1C(C)c1ccc(OC)cc1)OCO2 (stereo not given)
- T/C (dose: 50.0 mg/kg/injection, schedule: Q07DX002 (ip), vehicle: distilled water + Tween-80 + alcohol): 72 % of control
- T/C (dose: 100.0 mg/kg/injection, schedule: Q07DX002 (ip), vehicle: distilled water + Tween-80 + alcohol): 100 % of control
- T/C (dose: 400.0 mg/kg/injection, schedule: Q07DX002 (ip), vehicle: distilled water + Tween-80 + alcohol): 100 % of control

SMILES: Cc1ccc(N)c(N)c1
- T/C (dose: 25.0 mg/kg/injection, schedule: Q07DX002 (ip), vehicle: saline with Tween-80): 80 % of control
- T/C [5]: 89 % of control
- T/C [6]: 101 % of control
- T/C [7]: 114 % of control
- T/C [8]: 96 % of control

SMILES: Cc1nc(N)nc(N)c1-c1ccc(Cl)c(Cl)c1
- T/C (dose: 1.25 mg/kg/injection, schedule: Q07DX002 (ip), vehicle: saline): 106 % of control
- T/C (dose: 2.5 mg/kg/injection, schedule: Q07DX002 (ip), vehicle: saline): 81 % of control and 102 % of control
- T/C (dose: 5.0 mg/kg/injection, schedule: Q07DX002 (ip), vehicle: saline): 50 % of control and 72 % of control
- T/C (dose: 10.0 mg/kg/injection, schedule: Q07DX002 (ip), vehicle: saline): 68 % of control and 69 % of control and 83 % of control
- T/C (dose: 10.0 mg/kg/injection, schedule: Q07DX002 (ip), vehicle: suspension in saline): 67 % of control
- T/C (dose: 20.0 mg/kg/injection, schedule: Q07DX002 (ip), vehicle: suspension in saline): 46 % of control
- T/C (dose: 80.0 mg/kg/injection, schedule: Q07DX002 (ip), vehicle: saline): 55 % of control

SMILES: CCCCCCCCSC1=C(Cl)C(=O)C(OC)=C(OC)C1=O
- T/C (dose: 1.56 mg/kg/injection, schedule: Q07DX002 (ip), vehicle: saline with Tween-80): 94 % of control and 95 % of control

SMILES: CN(C)[C@@H]1C(=O)C(C(N)=O)=C(O)[C@@]2(O)C(=O)C3=C(O)c4c(O)ccc(Cl)c4[C@@](C)(O)[C@H]3C[C@@H]12
- T/C [2]: 182 % of control
- T/C (dose: 25.0 mg/kg/injection, schedule: Q07DX002 (ip), vehicle: suspension in saline): 82 % of control
- T/C [3]: 188 % of control
- T/C (dose: 50.0 mg/kg/injection, schedule: Q07DX002 (ip), vehicle: suspension in saline): 119 % of control
- T/C [4]: 117 % of control
- T/C (dose: 100.0 mg/kg/injection, schedule: Q07DX002 (ip), vehicle: suspension in saline): 80 % of control
- T/C [9]: 93 % of control
- T/C (dose: 200.0 mg/kg/injection, schedule: Q07DX002 (ip), vehicle: suspension in saline): 93 % of control
- T/C (dose: 400.0 mg/kg/injection, schedule: Q07DX002 (ip), vehicle: suspension in saline): 65 % of control

SMILES: CC(=O)OC1C2OC3C=C(C)CCC3(CO)C(C)(C1O)C21CO1 (stereo not given)
- T/C (dose: 1.0 mg/kg/injection, schedule: Q07DX002 (ip), vehicle: saline): 80 % of control

SMILES: CN=S(=O)(OCCCCCOS(=O)(=NC)c1ccc(C)cc1)c1ccc(C)cc1 (stereo not given)
- T/C [5]: 71 % of control and 94 % of control
- T/C [6]: 65 % of control and 89 % of control
- T/C [7]: 96 % of control
- T/C [8]: 61 % of control

SMILES: CCCC(=O)O
- T/C [2]: 121 % of control
- T/C [3]: 105 % of control
- T/C [9]: 99 % of control

SMILES: COC1C(/C=C/C(C)=O)OC2OC(C)(C)OC21 (stereo not given)
- T/C [4]: 114 % of control and 98 % of control

SMILES: CCC[P+](c1ccccc1)(c1ccccc1)c1ccccc1
- T/C (dose: 3.12 mg/kg/injection, schedule: Q07DX003 (ip), vehicle: saline with Tween-80): 114 % of control and 98 % of control
- T/C (dose: 6.25 mg/kg/injection, schedule: Q07DX003 (ip), vehicle: saline with Tween-80): 96 % of control
- T/C (dose: 25.0 mg/kg/injection, schedule: Q07DX003 (ip), vehicle: saline with Tween-80): 76 % of control
- T/C (dose: 50.0 mg/kg/injection, schedule: Q07DX003 (ip), vehicle: saline with Tween-80): 73 % of control

SMILES: CC(=O)OC(C)C1C2=C(C(=O)CC1(C)O)C(=O)c1c(ccc(-c3ccc4c(c3O)C(=O)C3=C(C4=O)C(C(C)OC(C)=O)C(C)(O)CC3=O)c1O)C2=O (stereo not given)
- T/C (dose: 1.85 mg/kg/injection, schedule: Q07DX002 (ip), vehicle: saline with Tween-80): 155 % of control
- T/C (dose: 3.75 mg/kg/injection, schedule: Q07DX002 (ip), vehicle: saline with Tween-80): 109 % of control
- T/C (dose: 7.5 mg/kg/injection, schedule: Q07DX002 (ip), vehicle: saline with Tween-80): 107 % of control
- T/C (dose: 30.0 mg/kg/injection, schedule: Q07DX002 (ip), vehicle: saline with Tween-80): 122 % of control

SMILES: O=C(NP(=O)(N1CC1)N1CC1)c1cc(I)ccc1I
- T/C (dose: 8.0 mg/kg/injection, schedule: Q07DX002 (ip), vehicle: Klucel (hydroxypropylcellulose) (HPC)): 105 % of control
- T/C (dose: 16.0 mg/kg/injection, schedule: Q07DX002 (ip), vehicle: Klucel (hydroxypropylcellulose) (HPC)): 47 % of control
- T/C (dose: 32.0 mg/kg/injection, schedule: Q07DX002 (ip), vehicle: Klucel (hydroxypropylcellulose) (HPC)): 92 % of control
- T/C (dose: 64.0 mg/kg/injection, schedule: Q07DX002 (ip), vehicle: Klucel (hydroxypropylcellulose) (HPC)): 55 % of control
- T/C (dose: 128.0 mg/kg/injection, schedule: Q07DX002 (ip), vehicle: Klucel (hydroxypropylcellulose) (HPC)): 22 % of control
- T/C (dose: 256.0 mg/kg/injection, schedule: Q07DX002 (ip), vehicle: Klucel (hydroxypropylcellulose) (HPC)): 31 % of control

SMILES: O=Cc1ccc(O)c(O)c1
- T/C [2]: 65 % of control
- T/C [5]: 117 % of control
- T/C [3]: 85 % of control
- T/C [6]: 91 % of control
- T/C [4]: 63 % of control
- T/C [7]: 108 % of control
- T/C [9]: 97 % of control
- T/C [8]: 113 % of control
- T/C (dose: 800.0 mg/kg/injection, schedule: Q07DX002 (ip), vehicle: saline): 88 % of control

SMILES: CN=C(N)N/N=C(\c1ccccc1)c1ccc(Br)cc1
- T/C (dose: 3.0 mg/kg/injection, schedule: Q07DX002 (ip), vehicle: saline with Tween-80): 152 % of control
- T/C [10]: 169 % of control
- T/C [11]: 156 % of control
- T/C [5]: 96 % of control

SMILES: O=C(Nc1nncs1)c1cccs1
- T/C [6]: 87 % of control and 88 % of control

SMILES: COC(=O)CC(N)C(=O)O (stereo not given)
- T/C [2]: 95 % of control
- T/C [3]: 70 % of control
- T/C [4]: 86 % of control
- T/C [9]: 61 % of control
- T/C (dose: 400.0 mg/kg/injection, schedule: Q07DX002 (ip), vehicle: saline): 50 % of control

SMILES: CC(/C=N/N=C(N)N)=N\N=C(N)N
- T/C (dose: 6.25 mg/kg/injection, schedule: Q07DX003 (ip), vehicle: saline): 66 % of control
- T/C (dose: 12.5 mg/kg/injection, schedule: Q07DX003 (ip), vehicle: saline): 66 % of control
- T/C (dose: 25.0 mg/kg/injection, schedule: Q07DX003 (ip), vehicle: saline): 79 % of control
- T/C (dose: 100.0 mg/kg/injection, schedule: Q07DX003 (ip), vehicle: saline): 115 % of control

SMILES: CCN(CC)c1ccc2cc(-c3nc4ccccc4n3C)c(=O)oc2c1
- T/C (dose: 12.5 mg/kg/injection, schedule: Q07DX002 (ip), vehicle: Klucel (hydroxypropylcellulose) (HPC)): 112 % of control
- T/C (dose: 25.0 mg/kg/injection, schedule: Q07DX002 (ip), vehicle: Klucel (hydroxypropylcellulose) (HPC)): 120 % of control
- T/C (dose: 50.0 mg/kg/injection, schedule: Q07DX002 (ip), vehicle: Klucel (hydroxypropylcellulose) (HPC)): 85 % of control
- T/C (dose: 100.0 mg/kg/injection, schedule: Q07DX002 (ip), vehicle: Klucel (hydroxypropylcellulose) (HPC)): 62 % of control

SMILES: COc1nc(=O)n(C2C=CC(=O)O2)cc1F (stereo not given)
- T/C [1]: 117 % of control
- T/C [2]: 113 % of control
- T/C [3]: 109 % of control

SMILES: O=C(Nc1ccc(C2=NCCN2)cc1)c1ccc(C(=O)Nc2ccc(C3=NCCN3)cc2)c(Cl)c1
- T/C [10]: 117 % of control
- T/C [11]: 117 % of control
- T/C [5]: 118 % of control
